From the supplement of paper PMC10307832

Tests used:
Test in all cases: relative viability (nuclei count vs DMSO), 5 days (fraction); higher = more cells survive
[1] = compound: CN(C)C(=N)NC(=N)N [Metformin] + Cc1cc(Nc2cc(N3CCN(C)CC3)nc(Sc3ccc(NC(=O)C4CC4)cc3)n2)n[nH]1 [Tozasertib] (partner 0.1 µM)
In short: (§1)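 Lung cancer cell lines were seeded in 1536-well plates and dosed by pin tool the next day, with either a single drug or a fixed anchor-drug dose combined with five library-drug doses (not always all listed) spaced in √10 steps. Five days later, one step fixed the cells and stained their nuclei (final 0.05% Triton X-100, 1% formaldehyde, 1 ug/ml Hoechst), and nuclei were counted on 4× images. Relative viability is the nuclei count in treated wells divided by the count in vehicle wells, and each value is the median of duplicate plates.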

[2] = compound: CN(C)C(=N)NC(=N)N [Metformin] + NC(=O)Nc1cc(-c2cccc(F)c2)sc1C(=O)N[C@H]1CCCNC1 [AZD7762] (partner 0.2 µM)
In short: as §1

[3] = compound: CN(C)C(=N)NC(=N)N [Metformin] + Nc1nc2[nH]cc(CCc3ccc(C(=O)N[C@@H](CCC(=O)O)C(=O)O)cc3)c2c(=O)[nH]1 [Pemetrexed] (partner 0.2 µM)
In short: as §1

[4] = compound: N#CC1(c2ccc(NC(=O)c3cccnc3NCc3ccncc3)cc2)CCCC1 [Apatinib] + N=C(N)NC(=N)NCCc1ccccc1 [Phenformin] (partner 250 µM)
In short: as §1

Cell Line	relative viability ([1]; first compound 10 µM)	relative viability ([1]; first compound 31.62 µM)	relative viability ([1]; first compound 100 µM)	relative viability ([1]; first compound 316.23 µM)	relative viability ([1]; first compound 1000 µM)	relative viability ([2]; first compound 10 µM)	relative viability ([2]; first compound 31.62 µM)	relative viability ([2]; first compound 100 µM)	relative viability ([2]; first compound 316.23 µM)	relative viability ([2]; first compound 1000 µM)	relative viability ([3]; first compound 10 µM)	relative viability ([3]; first compound 31.62 µM)	relative viability ([3]; first compound 100 µM)	relative viability ([3]; first compound 316.23 µM)	relative viability ([3]; first compound 1000 µM)	relative viability ([4]; first compound 0.08 µM)	relative viability ([4]; first compound 0.253 µM)	relative viability ([4]; first compound 0.8 µM)	relative viability ([4]; first compound 2.53 µM)	relative viability ([4]; first compound 8 µM)
RERF-LC-KJ	0.329	0.273	0.403	0.277	0.352	0.703	0.927	0.572	0.799	1	0.491	0.447	0.504	0.426	0.455	0.452	0.403	0.401	0.427	0.454
NCI-H647	0.244	0.293	0.349	0.456	0.307	0.414	0.467	0.495	0.418	0.513	0.127	0.137	0.16	0.146	0.148	0.561	0.64	0.427	0.544	0.319
NCI-H1395	0.727	0.752	0.867	0.83	0.738	0.415	0.389	0.41	0.428	0.41	1.05	1.1	0.998	0.624	0.488	0.464	0.419	0.454	0.412	0.459
NCI-H522	0.68	0.695	0.693	0.609	0.764	1.02	0.986	0.97	0.985	1.07	1.15	1.21	1.25	1.12	1.46	0.708	0.696	0.638	0.617	0.669
NCI-H322M	0.48	0.454	0.437	0.432	0.419	0.569	0.641	0.649	0.464	0.566	0.68	0.621	0.644	0.606	0.594	0.831	0.76	0.778	0.814	0.784
H3255	0.603	0.551	0.615	0.562	0.592	0.898	0.853	0.814	0.845	0.738	0.55	0.556	0.567	0.5	0.564	0.393	0.398	0.343	0.358	0.32
201T		0.93	1.04	0.857	0.92		0.5	0.581	0.476	0.609		0.329	0.313	0.289	0.353	0.481	0.448	0.413	0.33	0.405
SW 1573	0.153	0.119	0.175	0.161	0.162						0.728	0.817	0.668	0.725	0.743	0.485	0.426	0.376	0.397	0.387
NCI-H2170	0.731	0.733	0.779	0.758	0.693	0.74	0.836	0.869	0.745	0.913	0.238	0.281	0.264	0.266	0.267	0.462	0.404	0.373	0.355	0.335
NCI-H1993	0.622	0.551	0.609	0.571	0.596	0.714	0.656	0.744	0.716	0.9	0.521	0.507	0.588	0.558	0.633	0.533	0.555	0.528	0.485	0.567
NCI-H1755	0.446	0.519	0.474	0.509	0.497	0.361	0.379	0.408	0.345	0.408	0.416	0.443	0.392	0.34	0.376	0.626	0.611	0.628	0.609	0.559
NCI-H1437	0.403	0.44	0.405	0.411	0.418	1.17	1.1	1.07	1.09	0.551	0.347	0.336	0.343	0.352	0.317	0.354	0.283	0.278	0.252	0.251
EPLC-272H	0.292	0.212	0.288	0.192	0.238	0.23	0.351	0.345	0.334	0.259	0.467	0.345	0.429	0.394	0.39	0.325		0.318	0.333	0.265
LK-2	0.163	0.189	0.183	0.174	0.174	0.359	0.454	0.512	0.361	0.548	0.319	0.292	0.255	0.237	0.306	0.485	0.51	0.467	0.287	0.258
NCI-H1975	0.888	0.905	0.872	0.78	1.08	0.772	0.734	0.681	0.689	0.637	0.277	0.296	0.317	0.269	0.289	0.425	0.387	0.382	0.389	0.433
HARA		0.0842	0.14	0.101	0.105	0.279	0.47	0.362	0.293	0.287	0.323	0.28	0.327	0.301	0.28	0.424	0.455	0.391	0.28	0.298
SK-MES-1	0.624	0.693	0.75	0.662	0.771						0.532	0.721	0.805	0.662	0.708	0.699	0.615	0.616	0.574	0.451
NCI-H2405	0.701	0.732	0.801	0.763	0.716		0.866	0.831	0.722	0.515		1.16	1.04	0.619	0.679	0.392	0.392	0.394	0.33	0.344
NCI-H1734	0.246	0.242	0.267	0.268	0.29	0.61	0.542	0.541	0.579	0.53	0.49	0.418	0.461	0.456	0.455	0.401	0.481	0.381	0.342	0.353
NCI-H1915		0.452	0.466	0.416	0.489		0.713	0.686	0.669	0.707		0.438	0.404	0.379	0.435	0.377	0.353	0.334	0.354	0.326

Cell Line	relative viability ([1]; first compound 10 µM)	relative viability ([1]; first compound 31.62 µM)	relative viability ([1]; first compound 100 µM)	relative viability ([1]; first compound 316.23 µM)	relative viability ([1]; first compound 1000 µM)	relative viability ([2]; first compound 10 µM)	relative viability ([2]; first compound 31.62 µM)	relative viability ([2]; first compound 100 µM)	relative viability ([2]; first compound 316.23 µM)	relative viability ([2]; first compound 1000 µM)	relative viability ([3]; first compound 10 µM)	relative viability ([3]; first compound 31.62 µM)	relative viability ([3]; first compound 100 µM)	relative viability ([3]; first compound 316.23 µM)	relative viability ([3]; first compound 1000 µM)	relative viability ([4]; first compound 0.08 µM)	relative viability ([4]; first compound 0.253 µM)	relative viability ([4]; first compound 0.8 µM)	relative viability ([4]; first compound 2.53 µM)	relative viability ([4]; first compound 8 µM)
NCI-H2228	0.27	0.31	0.241	0.333	0.409						0.313	0.199	0.381	0.28	0.337	0.423	0.284	0.223	0.29	0.301
NCI-H650	0.831	0.8	0.973	0.48	0.919	1.03	1.22	0.896	0.835	1.18	0.846	0.993	0.878	0.941	1.1	0.405	0.413	0.447	0.385	0.374
NCI-H2009	0.761	0.856	0.802	0.759	0.783						0.874	0.943	0.891	0.814	0.891	0.494	0.497	0.382	0.264	0.219
ABC-1	0.223	0.163	0.172	0.158	0.189	1.24	1.03	0.986	1.1	0.909							0.264	0.234	0.217	0.249
NCI-H2023	0.32	0.413	0.479	0.301	0.324						0.185	0.219	0.226	0.187	0.205	0.384	0.481	0.404	0.329	0.301
A549																0.181	0.219	0.144	0.125	0.0802
NCI-H1648	0.474	0.656	0.859	0.706	0.742		0.575	0.681	0.574	0.663		0.664	0.876	0.67	0.713					
NCI-H661	0.344	0.373	0.377	0.362	0.366						0.9	0.934	0.877	0.858	0.879	0.279	0.273	0.273	0.263	0.277
SK-LU-1	0.263	0.311	0.272	0.263	0.307						0.853	0.956	0.97	0.892	0.905	0.607	0.594	0.471	0.413	0.454
COR-L 105	0.355	0.336	0.37	0.307	0.321						1.12	1.26	1.33	1.29	1.1	0.523	0.598	0.426	0.45	0.337
NCI-H1792						0.598	0.667	0.539	0.56	0.796	0.968	0.862	0.952	0.697	0.903	0.5	0.227	0.235	0.111	0.184
NCI-H520	0.462	0.496	0.463	0.498	0.469						0.656	0.593	0.688	0.657	0.689	0.661	0.567	0.56	0.391	0.391
UMC-11	0.211	0.188	0.202	0.2	0.209						0.907	0.697	0.81	0.791	0.855	0.333	0.318	0.287	0.293	0.266
NCI-H1623	0.363	0.413	0.452	0.337	0.452											0.601	0.624	0.636	0.511	0.616
NCI-H1703						0.138	0.139	0.135	0.112	0.132										
COR-L23	0.183	0.193	0.187	0.164	0.176						0.196	0.186	0.209	0.195	0.203	0.5	0.421	0.427	0.395	0.438
NCI-H727	0.564	0.821	0.606	0.501	0.637	0.655	0.624	0.565		0.525						0.566	0.542	0.528	0.539	0.514
NCI-H1563											0.874	0.899	0.847	0.89	0.921	0.642	0.705	0.75	0.517	0.623
NCI-H1650	0.433	0.443	0.496	0.442	0.364						0.398	0.428	0.388	0.404	0.301		0.503	0.35	0.35	0.318
